In ChEMBL document CHEMBL3217499, “Membrane disrupting antimicrobial peptide dendrimers with multiple amino termini” (Medchemcomm, 2012) one finds MIC, MHC and Activity data, which are given here for two molecules.

Values after ≈ are worked out from the molar mass of the structure shown. Active and inactive are the calls of the source. Where a SMILES comes first, the peptide text is derived from it. Bridges are numbered along the chain shown (N, C = ends). Roman numbers before positions name the chains, in order. Side-chain parts run from the residue outwards. [ ]: non-standard residue; d: D form. The star is where a group is joined. X1 = CC(C)C[C@H](N)C(=O)NC[C@H](NC(=O)[C@@H](N)CC(C)C)C(=O)*; Dap = NC[C@H](N)C(=O)O Bounds are passed on as bounds.

The term MIC denotes the smallest concentration in the dilution series that meets the test's criterion for growth inhibition.

One data set deals with Bacillus subtilis. Put plainly: Antibacterial activity against Bacillus subtilis BR151 after 18 to 24 hrs by broth microdilution assay. In kind it is functional.
In data set [1] the test system is Escherichia coli. Put plainly: Antibacterial activity against Escherichia coli DH5[alpha] after 18 to 24 hrs by broth microdilution assay. In kind it is functional. In general terms: In broth dilution the organism is exposed to a series of concentrations in liquid medium.
Data set [2] relates to Pseudomonas aeruginosa. Put plainly: Antibacterial activity against Pseudomonas aeruginosa PAO1 after 18 to 24 hrs by broth microdilution assay. In kind it is functional.
Data set [3] can be described thus: Hemolytic activity in human RBC after 4 hrs. In kind it is ADME, cell-based. To be noted: erythrocyte.
The test system of data set [4] is Staphylococcus aureus. Put plainly: Antibacterial activity against Staphylococcus aureus ATCC 25923 by broth microdilution assay. In kind it is functional.
In data set [5] the test system is Staphylococcus aureus. Put plainly: Antibacterial activity against Staphylococcus aureus 887 by broth microdilution assay. In kind it is functional.
Data set [6] deals with Staphylococcus epidermidis. Put plainly: Antibacterial activity against Staphylococcus epidermidis ATCC 14990 by broth microdilution assay. In kind it is functional.
In data set [7] the test system is Staphylococcus epidermidis. Put plainly: Antibacterial activity against Staphylococcus epidermidis J147 by broth microdilution assay. In kind it is functional.
Data set [8] relates to Enterococcus faecium. Put plainly: Antibacterial activity against Enterococcus faecium ATCC 19434 by broth microdilution assay. In kind it is functional.
Data set [9] deals with Enterococcus faecium. Put plainly: Antibacterial activity against Enterococcus faecium Van BE38-10 by broth microdilution assay. In kind it is functional.
Data set [10] relates to Escherichia coli. Put plainly: Antibacterial activity against Escherichia coli HB101 (PAT 266) by broth microdilution assay. In kind it is functional.
Data set [11] concerns Escherichia coli. Put plainly: Antibacterial activity against Escherichia coli DC2 by broth microdilution assay. In kind it is functional.
For data set [12], the system named is Staphylococcus aureus. Put plainly: Antibacterial activity against methicillin-resistant Staphylococcus aureus 42080 by broth microdilution assay. In kind it is functional.
Data set [13] deals with Staphylococcus aureus. Put plainly: Antibacterial activity against Staphylococcus aureus ATCC 29213 by broth microdilution assay. In kind it is functional.
Data set [14] deals with Enterococcus faecalis. Put plainly: Antibacterial activity against Enterococcus faecalis ATCC 29212 by broth microdilution assay. In kind it is functional.
In data set [15] the test system is Enterococcus faecalis. Put plainly: Antibacterial activity against Enterococcus faecalis Van BE80-8 by broth microdilution assay. In kind it is functional.
The subject of data set [16] is Escherichia coli. Put plainly: Antibacterial activity against Escherichia coli ATCC 25922 by broth microdilution assay. In kind it is functional.
The test system of data set [17] is Pseudomonas aeruginosa. Put plainly: Antibacterial activity against Pseudomonas aeruginosa ATCC 27853 by broth microdilution assay. In kind it is functional.
Data set [18] relates to Pseudomonas aeruginosa. Put plainly: Antibacterial activity against Pseudomonas aeruginosa PAO1 HS by broth microdilution assay. In kind it is functional.
Data set [19] has as its system Pseudomonas aeruginosa. Put plainly: Antibacterial activity against Pseudomonas aeruginosa 8S/H by broth microdilution assay. In kind it is functional.
In data set [20] the test system is Pseudomonas aeruginosa. Put plainly: Antibacterial activity against Pseudomonas aeruginosa K799/WT by broth microdilution assay. In kind it is functional.
Data set [21] has as its system Pseudomonas aeruginosa. Put plainly: Antibacterial activity against Pseudomonas aeruginosa K799/61 by broth microdilution assay. In kind it is functional.
A further data set relates to Lipid bilayer. Put plainly: Induction of membrane disruption in synthetic unilamellar vesicles assembled from Escherichia coli lipids at 25 ug/ml after 16 hrs by negative-stain transmission electron microscopic analysis. In kind it is functional.

For `CC(C)C[C@H](NC(=O)[C@H](CCCCNC(=O)[C@@H](N)CC(C)C)NC(=O)[C@@H](N)CC(C)C)C(=O)NCCCC[C@H](NC(=O)[C@H](CC(C)C)NC(=O)[C@H](CCCCNC(=O)[C@@H](N)CC(C)C)NC(=O)[C@@H](N)CC(C)C)C(=O)N[C@@H](Cc1ccccc1)C(=O)NCCCC[C@H](NC(=O)[C@H](Cc1ccccc1)NC(=O)[C@H](CCCCNC(=O)[C@H](CC(C)C)NC(=O)[C@H](CCCCNC(=O)[C@@H](N)CC(C)C)NC(=O)[C@@H](N)CC(C)C)NC(=O)[C@H](CC(C)C)NC(=O)[C@H](CCCCNC(=O)[C@@H](N)CC(C)C)NC(=O)[C@@H](N)CC(C)C)C(=O)N[C@@H](CCCCN)C(N)=O`, the minimum inhibitory concentration (MIC) with Bacillus subtilis was 2 µg/mL (≈ 0.742 µM); with Escherichia coli [1] it was 21 µg/mL (≈ 7.79 µM); against Pseudomonas aeruginosa [2] it was greater than 72 µg/mL; against Staphylococcus aureus [4] it was 24 µg/mL (≈ 8.91 µM); in the data set on Staphylococcus aureus [5] it was 12 µg/mL (≈ 4.45 µM); in data set [6], 32 µg/mL (≈ 11.9 µM). The MIC in [7] is 24 µg/mL (≈ 8.91 µM); with Enterococcus faecium [8] it was no less than 32 µg/mL; against Enterococcus faecium [9], 32 µg/mL (≈ 11.9 µM); in the data set with Escherichia coli [10] it was 32 µg/mL (≈ 11.9 µM); against Escherichia coli [11], greater than 32 µg/mL; against Staphylococcus aureus [12] it was greater than 32 µg/mL. Further, the minimal inhibitory concentration (MIC) against Staphylococcus aureus [13], in the data set with Enterococcus faecalis [14], against Enterococcus faecalis [15], in the data set on Escherichia coli [16], against Pseudomonas aeruginosa [17] and in the data set on Pseudomonas aeruginosa [18] was greater than 32 µg/mL in each case. The MIC with Pseudomonas aeruginosa [19], against Pseudomonas aeruginosa [20] and against Pseudomonas aeruginosa [21] was greater than 32 µg/mL in each case. Moreover, the MHC in data set [3] came to 310 µg/mL. Further, in the data set on Lipid bilayer, the outcome was Active.

With `CC(C)C[C@H](NC(=O)[C@H](CNC(=O)[C@@H](N)CC(C)C)NC(=O)[C@@H](N)CC(C)C)C(=O)NC[C@H](NC(=O)[C@H](CC(C)C)NC(=O)[C@H](CNC(=O)[C@@H](N)CC(C)C)NC(=O)[C@@H](N)CC(C)C)C(=O)N[C@@H](Cc1ccccc1)C(=O)NC[C@H](NC(=O)[C@H](Cc1ccccc1)NC(=O)[C@H](CNC(=O)[C@H](CC(C)C)NC(=O)[C@H](CNC(=O)[C@@H](N)CC(C)C)NC(=O)[C@@H](N)CC(C)C)NC(=O)[C@H](CC(C)C)NC(=O)[C@H](CNC(=O)[C@@H](N)CC(C)C)NC(=O)[C@@H](N)CC(C)C)C(=O)N[C@@H](CCCCN)C(N)=O` (I: H-L[Dap](Leu)L[Dap]([Leu-X1])F[Dap]K-NH2 / II: H-L[Dap](Leu)L[Dap]([Leu-X1])F; amide I:6-II:C), the MIC against Bacillus subtilis was 2.9 µg/mL (≈ 1.21 µM); in the data set with Escherichia coli [1], 3.9 µg/mL (≈ 1.62 µM); in the data set on Pseudomonas aeruginosa [2], 18 µg/mL (≈ 7.5 µM); in the data set with Staphylococcus aureus [4], no less than 32 µg/mL; against Staphylococcus aureus [5] it was 32 µg/mL (≈ 13.3 µM); in [6], 24 µg/mL (≈ 10 µM). Besides, the MIC was 24 µg/mL (≈ 10 µM) in data set [7]; greater than 32 µg/mL in the data set on Enterococcus faecium [8]; greater than 32 µg/mL against Enterococcus faecium [9]; 32 µg/mL (≈ 13.3 µM) in the data set with Escherichia coli [10]; 32 µg/mL (≈ 13.3 µM) in the data set on Escherichia coli [11]; greater than 32 µg/mL against Staphylococcus aureus [12]. Also, the MIC with Staphylococcus aureus [13], in the data set with Enterococcus faecalis [14], in the data set on Enterococcus faecalis [15], in the data set with Escherichia coli [16], against Pseudomonas aeruginosa [17] and in the data set with Pseudomonas aeruginosa [18] was greater than 32 µg/mL in each case. Further, the MIC against Pseudomonas aeruginosa [19], in the data set with Pseudomonas aeruginosa [20] and against Pseudomonas aeruginosa [21] was greater than 32 µg/mL each time. The MHC in data set [3] was greater than 2000 µg/mL.
